Reference: ChEMBL document CHEMBL5344421, “Chemical Analysis and Antidiabetic Potential of a Decoction from Stevia serrata Roots” (J Nat Prod, 2024)
The source made the active and inactive calls. No cut-off for these calls is given here.

Assays:
[1] = molecular target: T1, Tyrosine-protein phosphatase non-receptor type 1 (Homo sapiens, UniProt P18031); test: Inhibition of Protein tyrosine phosphatase 1B (unknown origin) activity by spectrophotocolorimetric analysis
T1 sequence (P18031 whole entry): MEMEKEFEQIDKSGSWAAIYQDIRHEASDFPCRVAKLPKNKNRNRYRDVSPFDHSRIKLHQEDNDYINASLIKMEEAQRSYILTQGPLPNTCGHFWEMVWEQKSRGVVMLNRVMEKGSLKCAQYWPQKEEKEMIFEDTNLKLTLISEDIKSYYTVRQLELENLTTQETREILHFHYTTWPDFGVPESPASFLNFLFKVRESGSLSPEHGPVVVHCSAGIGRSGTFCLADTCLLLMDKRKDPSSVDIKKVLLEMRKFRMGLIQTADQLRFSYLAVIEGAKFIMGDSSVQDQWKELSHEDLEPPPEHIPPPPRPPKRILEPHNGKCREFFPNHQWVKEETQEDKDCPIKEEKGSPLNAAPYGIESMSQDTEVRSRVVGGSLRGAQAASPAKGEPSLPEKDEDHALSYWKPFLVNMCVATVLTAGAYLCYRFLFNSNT

Sus scrofa = species on record: Sus scrofa; test: (§1) Inhibition of porcine pancreatic alpha-amylase measured after 40 mins by spectrophotocolorimetric enzymatic assay
[2] = molecular target: T2, Pancreatic triacylglycerol lipase (Sus scrofa) (UniProt P00591); test: Inhibition of porcine pancreatic lipase measured after 40 mins by spectrophotocolorimetric enzymatic assay
T2 sequence (whole entry): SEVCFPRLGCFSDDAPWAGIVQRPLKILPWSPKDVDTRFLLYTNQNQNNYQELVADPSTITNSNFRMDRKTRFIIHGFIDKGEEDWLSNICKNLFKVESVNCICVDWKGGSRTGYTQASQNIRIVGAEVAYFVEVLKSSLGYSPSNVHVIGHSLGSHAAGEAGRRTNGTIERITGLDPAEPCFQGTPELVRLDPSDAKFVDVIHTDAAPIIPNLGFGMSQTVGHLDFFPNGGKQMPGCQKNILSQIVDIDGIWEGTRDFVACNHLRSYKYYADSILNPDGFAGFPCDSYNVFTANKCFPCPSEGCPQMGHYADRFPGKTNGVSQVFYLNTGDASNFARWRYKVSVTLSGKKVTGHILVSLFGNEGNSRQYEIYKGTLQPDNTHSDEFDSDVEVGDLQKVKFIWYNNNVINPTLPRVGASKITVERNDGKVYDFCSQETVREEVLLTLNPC

[3] = as §1; design: species or system Sus scrofa
Mus musculus [4] = test: Antihyperglycemic activity in STZ-hyperglycemic mouse assessed as decrease in blood glucose level at 150 mg/kg, po measured upto 5 hrs after administration; format: functional, organism-based
Mus musculus [5] = test: Antihyperglycemic activity in STZ-induced hyperglycemic CD1 mouse model assessed as reduction in blood glucose AUC at 50 mg/kg, ip measured upto 120 min intraperitoneal by insulin tolerance test; format: functional, organism-based
Mus musculus [6] = test: Hypoglycemic effect in normoglycemic mouse assessed as decrease in blood glucose level at 5 to 50 mg/kg, po measured upto 5 hrs after administration; format: functional, organism-based; details: dose 5-50 mg/kg
Mus musculus [7] = test: Antihyperglycemic activity in STZ-hyperglycemic mouse assessed as decrease in at 50 mg/kg, po measured upto 120 min after administration by oral glucose tolerance test; format: functional, organism-based
Mus musculus [8] = test: Antihyperglycemic activity in normoglycemic mouse assessed as decrease in at 50 mg/kg, po measured upto 120 min after administration by oral glucose tolerance test; format: functional, organism-based

C=C1[C@@H]2CC[C@H]3[C@]4(C)CCC[C@@](C)(C(=O)O[C@@H]5O[C@H](CO)[C@@H](O[C@@H]6OC[C@H](O)[C@H](O)[C@H]6O)[C@H](OC(C)=O)[C@H]5OC(C)=O)[C@H]4CC[C@]3(C2)[C@H]1O[C@@H]1O[C@H](CO)[C@@H](O)[C@H](O)[C@H]1O
IC50 [1]: 928 µM
inhibition (Sus scrofa): inactive
inhibition [2]: inactive

CC(=O)O[C@@H]1[C@@H](OC(C)=O)[C@H](OC(=O)[C@]2(C)CCC[C@@]3(C)[C@@H]4[C@@H](O)C[C@@H]5C[C@@]4(CC[C@@H]32)C[C@@]5(O)CO)O[C@H](CO)[C@H]1O[C@@H]1OC[C@H](O)[C@H](O)[C@H]1O
IC50 [1]: 31.8 µM
inhibition (Sus scrofa): inactive
inhibition [2]: inactive

C[C@H]1O[C@H](O[C@H]2[C@H](O)[C@@H](O)[C@@H](O[C@H]3[C@H](O)[C@@H](O)C(O)O[C@@H]3CO)O[C@@H]2CO)[C@H](O)[C@@H](O)[C@@H]1N[C@H]1C=C(CO)[C@@H](O)[C@H](O)[C@H]1O (stereo partly specified) [ACARBOSE]
IC50 [3]: 3.2 µM

C=C1C[C@@]23CC[C@H]4[C@@](C)(CCC[C@@]4(C)C(=O)O[C@@H]4O[C@H](CO)[C@@H](O[C@@H]5OC[C@H](O)[C@H](O)[C@H]5O)[C@H](OC(C)=O)[C@H]4OC(C)=O)[C@@H]2[C@@H](O)[C@@H]1C(=O)C3
IC50 [1]: 527 µM
Activity (Mus musculus [4]): Active
Activity (Mus musculus [5]): Active
Activity (Mus musculus [6]): Active
Activity (Mus musculus [7]): Active
inhibition (Sus scrofa): inactive
inhibition [2]: inactive
Activity (Mus musculus [8]): Active

CC(=O)O[C@@H]1CC[C@]2(C)[C@H]3CCC4=C([C@@H](C)CCC=C(C)C)CC[C@@]4(C)[C@]3(C)CC[C@H]2C1(C)C
IC50 [1]: 1180 µM
inhibition (Sus scrofa): inactive
inhibition [2]: inactive

CC(=O)O[C@@H]1[C@@H](OC(C)=O)[C@H](OC(=O)[C@]2(C)CCC[C@@]3(C)[C@@H]4[C@@H](O)[C@@H]5C(=O)C[C@]4(C=C5C)CC[C@@H]32)O[C@H](CO)[C@H]1O[C@@H]1OC[C@H](O)[C@H](O)[C@H]1O
IC50 [1]: 532 µM
inhibition (Sus scrofa): inactive
inhibition [2]: inactive
